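Interpolation was linear, between the two tested concentrations surrounding the appropriate level; five concentrations were tested over 48 hours in 96-well plates. The concentration for 50% growth inhibition is given as GI50.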 Calls of active or inactive are those of the source. Cut-off read from the data, not from the text of the source: active = GI50 up to about 1.1 µM and inactive = higher.
Experiments:
Assay in all cases: inhibition of tumour cell growth, NCI panel, 48 h
A498 = system: A498
DU-145 = system: DU-145
HOP-92 = system: HOP-92
Hs-578T = system: Hs-578T
M14 = system: M14
MCF7 = system: MCF7
MDA-MB-231 = system: MDA-MB-231
MDA-MB-435 = system: MDA-MB-435
MDA-N = system: MDA-N
MOLT-4 = system: MOLT-4
NCI-H460 = system: NCI-H460
NCI/ADR-RES = system: NCI/ADR-RES
PC-3 = system: PC-3
SK-MEL-28 = system: SK-MEL-28
SR = system: SR
T47D = system: T47D
KM12 = system: KM12
UACC-62 = system: UACC-62
BT-549 = system: BT-549

| SMILES | GI50 (A498) | GI50 (DU-145) | GI50 (HOP-92) | GI50 (Hs-578T) | GI50 (M14) | GI50 (MCF7) | GI50 (MDA-MB-231) | GI50 (MDA-MB-435) | GI50 (MDA-N) | GI50 (MOLT-4) | GI50 (NCI-H460) | GI50 (NCI/ADR-RES) | GI50 (PC-3) | GI50 (SK-MEL-28) | GI50 (SR) | GI50 (T47D) | GI50 (KM12) | GI50 (UACC-62) | GI50 (BT-549) |
| --- | --- | --- | --- | --- | --- | --- | --- | --- | --- | --- | --- | --- | --- | --- | --- | --- | --- | --- | --- |
| CCOP(=O)(OCC)C(Cc1c[nH]c2ccccc12)C(=O)O (centres undefined) | > 100 µM (inactive) | > 100 µM (inactive) | > 100 µM (inactive) | > 100 µM (inactive) | > 100 µM (inactive) | 37.2 µM (inactive) | > 100 µM (inactive) | > 100 µM (inactive) | > 100 µM (inactive) | > 100 µM (inactive) | > 100 µM (inactive) | > 100 µM (inactive) | > 100 µM (inactive) | > 100 µM (inactive) | > 100 µM (inactive) | > 100 µM (inactive) | – | – | – |
| CC(NC(=O)c1ccc(OP(=O)(OCC2=CC(=O)c3ccccc3C2=O)N(C)CCCCCl)cc1)c1ccc(OCC2CCCCC2)c(C(N)=O)c1 (centres undefined) | – | 3.5 µM (inactive) | 0.0244 µM (active) | 2.52 µM (inactive) | 3.32 µM (inactive) | 11.4 µM (inactive) | 8.99 µM (inactive) | 2.47 µM (inactive) | 2.72 µM (inactive) | 12.3 µM (inactive) | 11 µM (inactive) | 14.8 µM (inactive) | 14.2 µM (inactive) | 14.2 µM (inactive) | 12.6 µM (inactive) | 0.0891 µM (active) | 12 µM (inactive) | 9.64 µM (inactive) | – |
| Cc1ccc(NC(=O)/C(=N\Nc2ccc([N+](=O)[O-])cc2[N+](=O)[O-])C2C(=O)NC(=O)NC2=O)cc1 | > 100 µM (inactive) | – | > 100 µM (inactive) | – | 89.7 µM (inactive) | – | – | – | – | – | 71 µM (inactive) | – | – | > 100 µM (inactive) | > 100 µM (inactive) | – | 53.2 µM (inactive) | 7.13 µM (inactive) | – |
| O=C1c2ccccc2C(=O)c2cc(/N=N/c3c(O)ccc4ccccc34)ccc21 | > 100 µM (inactive) | > 100 µM (inactive) | > 100 µM (inactive) | 27.7 µM (inactive) | > 100 µM (inactive) | – | > 100 µM (inactive) | > 100 µM (inactive) | > 100 µM (inactive) | > 100 µM (inactive) | – | > 100 µM (inactive) | > 100 µM (inactive) | > 100 µM (inactive) | > 100 µM (inactive) | > 100 µM (inactive) | > 100 µM (inactive) | > 100 µM (inactive) | > 100 µM (inactive) |
| O=C1/C(=C/c2ccccc2)CN(C(=O)C(Cl)(Cl)Cl)C/C1=C\c1ccccc1 | 4.24 µM (inactive) | – | – | – | 1.26 µM (inactive) | – | – | – | – | 1.36 µM (inactive) | 2.08 µM (inactive) | – | – | 1.73 µM (inactive) | 1.85 µM (inactive) | – | 1.29 µM (inactive) | 1.68 µM (inactive) | – |
| O=[N+]([O-])/C=C/c1cn(CCCCCCCCn2cc(/C=C/[N+](=O)[O-])c3ccccc32)c2ccccc12 | > 10 µM (inactive) | > 10 µM (inactive) | > 10 µM (inactive) | 6.92 µM (inactive) | > 10 µM (inactive) | – | > 10 µM (inactive) | 0.327 µM (active) | 0.61 µM (active) | > 10 µM (inactive) | > 10 µM (inactive) | > 10 µM (inactive) | > 10 µM (inactive) | > 10 µM (inactive) | > 10 µM (inactive) | > 10 µM (inactive) | > 10 µM (inactive) | > 10 µM (inactive) | – |
| Cc1c2c(n(CCN(C)C)c1C)NN=C(C#N)S2(=O)=O | – | > 100 µM (inactive) | – | > 100 µM (inactive) | > 100 µM (inactive) | > 100 µM (inactive) | > 100 µM (inactive) | > 100 µM (inactive) | > 100 µM (inactive) | > 100 µM (inactive) | > 100 µM (inactive) | > 100 µM (inactive) | > 100 µM (inactive) | > 100 µM (inactive) | – | > 100 µM (inactive) | > 100 µM (inactive) | > 100 µM (inactive) | – |
| O=C(c1cccs1)N(C(=S)N1CCN(c2ccccc2)CC1)c1ccccc1 | – | – | > 100 µM (inactive) | – | > 100 µM (inactive) | – | – | – | – | > 100 µM (inactive) | > 100 µM (inactive) | – | – | > 100 µM (inactive) | > 100 µM (inactive) | – | > 100 µM (inactive) | > 100 µM (inactive) | – |
| Cc1ccc(S(=O)(=O)OC(COC(=O)c2ccccc2)C(OS(=O)(=O)c2ccc(C)cc2)C(OS(=O)(=O)c2ccc(C)cc2)C(COC(=O)c2ccccc2)OS(=O)(=O)c2ccc(C)cc2)cc1 (centres undefined) | > 100 µM (inactive) | – | > 100 µM (inactive) | – | > 100 µM (inactive) | – | – | – | – | > 100 µM (inactive) | > 100 µM (inactive) | – | – | > 100 µM (inactive) | > 100 µM (inactive) | – | > 100 µM (inactive) | > 10 µM (inactive) | – |
| CCN(CC)c1ccc2cc(C(=O)Nc3nc(C45CC6CC(CC(C6)C4)C5)cs3)c(=O)oc2c1 | > 100 µM (inactive) | > 100 µM (inactive) | > 100 µM (inactive) | > 100 µM (inactive) | – | > 100 µM (inactive) | > 100 µM (inactive) | > 100 µM (inactive) | > 100 µM (inactive) | > 100 µM (inactive) | > 100 µM (inactive) | > 100 µM (inactive) | > 100 µM (inactive) | > 100 µM (inactive) | > 100 µM (inactive) | – | > 100 µM (inactive) | – | > 100 µM (inactive) |
| O=c1[nH]c2cc(C(F)(F)F)ccc2nc1C(F)(F)F | 41.3 µM (inactive) | 33.8 µM (inactive) | 16.6 µM (inactive) | – | 45.1 µM (inactive) | 53.6 µM (inactive) | 31.3 µM (inactive) | 34 µM (inactive) | 32.7 µM (inactive) | 38.4 µM (inactive) | > 100 µM (inactive) | 37.9 µM (inactive) | 37.8 µM (inactive) | 68.9 µM (inactive) | 55.8 µM (inactive) | 36.6 µM (inactive) | 23.7 µM (inactive) | 43.2 µM (inactive) | 44.2 µM (inactive) |
| COc1ccc(-c2c3c([nH]c(=S)c2C#N)CC(C)(C)CC3=O)cc1 | 55.6 µM (inactive) | > 100 µM (inactive) | > 100 µM (inactive) | > 100 µM (inactive) | > 100 µM (inactive) | > 100 µM (inactive) | > 100 µM (inactive) | – | > 100 µM (inactive) | > 100 µM (inactive) | > 100 µM (inactive) | – | > 100 µM (inactive) | > 100 µM (inactive) | > 100 µM (inactive) | 59.6 µM (inactive) | > 100 µM (inactive) | > 100 µM (inactive) | > 100 µM (inactive) |
| Cc1cccc(C)c1NC(=O)C(=O)C1C(=O)N(c2ccccc2)N=C1N (centres undefined) | > 100 µM (inactive) | – | > 100 µM (inactive) | – | > 100 µM (inactive) | – | – | – | – | > 100 µM (inactive) | > 100 µM (inactive) | – | – | > 100 µM (inactive) | > 100 µM (inactive) | – | > 100 µM (inactive) | > 100 µM (inactive) | – |
| COc1cccc(-c2[nH]c3cc4c(cc3c(=O)c2C(=O)O)OCO4)c1 | 34.4 µM (inactive) | 38.7 µM (inactive) | 27.5 µM (inactive) | – | 26 µM (inactive) | 41 µM (inactive) | 57.5 µM (inactive) | 8.39 µM (inactive) | 9.84 µM (inactive) | 24.2 µM (inactive) | 43.7 µM (inactive) | 17.8 µM (inactive) | 57.5 µM (inactive) | 37 µM (inactive) | 8.73 µM (inactive) | > 100 µM (inactive) | 36.7 µM (inactive) | 33.6 µM (inactive) | 51.3 µM (inactive) |
| COc1ccc(NC(=O)C(=O)NO)c(OC)c1 | 21.5 µM (inactive) | – | 20.6 µM (inactive) | – | 16.3 µM (inactive) | – | – | – | – | 11.9 µM (inactive) | 16 µM (inactive) | – | – | 17.5 µM (inactive) | 0.239 µM (active) | – | 19.8 µM (inactive) | 14.8 µM (inactive) | – |
| COC(=O)C1CCC(=O)N1C(c1ccc2c(c1)OCO2)c1cc(OC)c(OC)c(OC)c1 (centres undefined) | > 100 µM (inactive) | > 100 µM (inactive) | > 100 µM (inactive) | > 100 µM (inactive) | > 100 µM (inactive) | > 100 µM (inactive) | > 100 µM (inactive) | > 100 µM (inactive) | > 100 µM (inactive) | > 100 µM (inactive) | > 100 µM (inactive) | – | > 100 µM (inactive) | > 100 µM (inactive) | > 100 µM (inactive) | – | > 100 µM (inactive) | > 100 µM (inactive) | > 100 µM (inactive) |
| O=C1OC(c2ccc(O)cc2)(c2ccc(O)cc2)c2ccc(Cl)c3cccc1c23.O=C1OC(c2ccc(O)cc2)(c2ccc(O)cc2)c2cccc3c(Cl)ccc1c23 | 19.1 µM (inactive) | 75 µM (inactive) | 24.2 µM (inactive) | 12.1 µM (inactive) | 10 µM (inactive) | 13.6 µM (inactive) | 10.7 µM (inactive) | 9.46 µM (inactive) | 11.8 µM (inactive) | – | 12.4 µM (inactive) | 11.7 µM (inactive) | 3.48 µM (inactive) | 4.09 µM (inactive) | 9.04 µM (inactive) | – | 8.11 µM (inactive) | 10.1 µM (inactive) | 11.8 µM (inactive) |
| C[C@]12CC[C@H](O[C@@H]3O[C@H](CO[C@@H]4O[C@H](CO)[C@@H](O)[C@H](O)[C@H]4O)[C@@H](O)[C@H](O)[C@H]3O)C[C@@H]1CC[C@@H]1[C@@H]2CC[C@]2(C)[C@@H](C3=CC(=O)OC3)CC[C@]12O [UZARIN] | 24.9 µM (inactive) | 13.3 µM (inactive) | 29.4 µM (inactive) | 19.5 µM (inactive) | 24.8 µM (inactive) | – | > 80.2 µM (inactive) | 31.8 µM (inactive) | 29 µM (inactive) | 4.02 µM (inactive) | 7.29 µM (inactive) | 15.4 µM (inactive) | 28.2 µM (inactive) | > 80 µM (inactive) | 6.25 µM (inactive) | 31.1 µM (inactive) | 47.8 µM (inactive) | 33.7 µM (inactive) | 6.71 µM (inactive) |

From ChEMBL document CHEMBL1201862, “PubChem BioAssay data set” (2004)
